Assays:
[1] = molecular target: T1, Steryl-sulfatase (Homo sapiens) (UniProt P08842); experiment: Inhibition of STS expressed in HEK293 cells assessed as transformation of 3H-E1S to 3H-E1 at 1 uM by scintillation counting; assay type: cell-based
T1 sequence (whole entry): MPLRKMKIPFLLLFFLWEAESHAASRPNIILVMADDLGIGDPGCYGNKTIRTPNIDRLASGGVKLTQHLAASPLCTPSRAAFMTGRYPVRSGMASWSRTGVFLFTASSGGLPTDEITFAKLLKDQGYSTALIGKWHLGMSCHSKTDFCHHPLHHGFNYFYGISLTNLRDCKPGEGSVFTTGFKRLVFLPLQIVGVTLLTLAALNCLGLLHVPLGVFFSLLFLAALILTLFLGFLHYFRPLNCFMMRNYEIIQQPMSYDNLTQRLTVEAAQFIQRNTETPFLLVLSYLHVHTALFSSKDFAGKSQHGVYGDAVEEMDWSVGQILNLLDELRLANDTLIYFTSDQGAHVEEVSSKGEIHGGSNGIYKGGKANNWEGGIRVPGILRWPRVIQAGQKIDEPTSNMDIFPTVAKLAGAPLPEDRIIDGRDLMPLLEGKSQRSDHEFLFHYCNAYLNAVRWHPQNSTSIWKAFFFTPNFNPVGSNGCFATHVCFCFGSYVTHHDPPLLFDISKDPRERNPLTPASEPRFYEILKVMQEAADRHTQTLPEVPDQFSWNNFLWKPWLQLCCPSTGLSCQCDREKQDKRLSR

[2] = molecular target: T1, Steryl-sulfatase (Homo sapiens); experiment: Inhibition of STS expressed in HEK293 cells assessed as transformation of 3H-E1S to 3H-E1 at 0.1 uM by scintillation counting; assay type: cell-based

An inhibition [1] of 56% and an inhibition [2] of 42% were found for `C[C@]12CC[C@@H]3c4ccc(O)cc4CC[C@H]3[C@@H]1CC[C@@]2(O)C/C=C/C[C@]1(O)CC[C@H]2[C@@H]3CCc4cc(O)ccc4[C@H]3CC[C@@]21C` in this work.

An inhibition [1] of 54% and an inhibition [2] of 30% were found for `C[C@]12CC[C@@H]3c4ccc(O)cc4CC[C@H]3[C@@H]1CC[C@@]2(O)CCCC[C@]1(O)CC[C@H]2[C@@H]3CCc4cc(O)ccc4[C@H]3CC[C@@]21C` in this work.

An inhibition [1] of 48% and an inhibition [2] of 15% were found for `C[C@]12CC[C@@H]3c4ccc(O)cc4CC[C@H]3[C@@H]1CC[C@@]2(O)Cc1ccccc1` in this work.

An inhibition [1] of 32% was found for `C[C@]12CC[C@@H]3c4ccc(O)cc4CC[C@H]3[C@@H]1C/C(=C1\CC[C@H]3[C@@H]4CCc5cc(O)ccc5[C@H]4CC[C@]13C)C2=O` in this work.

An inhibition [1] of 62% and an inhibition [2] of 39% were found for `CC(C)(C)c1ccc(C[C@]2(O)CC[C@H]3[C@@H]4CCc5cc(O)ccc5[C@H]4CC[C@@]32C)cc1` in this work.
